Test results taken from patent publication US6844353B2, “Fungicidal properties of sampangine and its analogs to agriculturally important fungal plant pathogens” (The United States of America as represented by the …, priority 2003, dated 2005).
Read-outs that look alike come from different tables or passages of the source.

Assays:
Experiment in all cases: 96-well microtiter plate assay, fungal growth inhibition
C. fragariae = assay type: cell-based, Colletotrichum fragariae; details: for inhibition at 0.3 µM / inhibition at 3 µM / inhibition at 30 µM: Colletotrichum fragariae, read-out: Percent inhibition−Percent Stimulation±SEM; for Percent inhibition−Percent Stimulation±SEM: C. fragariae
Source text: (§1) Pathogen production. Isolates of Colletotrichum acutatum Simmonds, Colletotrichum fragariae Brooks, and Colletotrichum gloeosporioides (Penz.) Penz. & Sacc. in Penz. were obtained from B. J. Smith, USDA, ARS, Small Fruit Research Station, Poplarville, Miss. Colletotrichum fragariae (isolate CF63), C. acutatum (isolate CAGoff), and C. gloeosporioides (isolate CG162) were used for all pathogen and bioautography studies. Isolate CF63 is one of the most virulent isolates at infecting strawberry plants and inducing both crown and fruit rot (Smith and Black, 1990). CF63, CAGoff, and CG162 were used as standard test isolates because of our extensive knowledge of these isolates and their known fungicide sensitivity profiles in both bioautography and microtiter formats. The three Colletotrichum species were isolated from strawberry (Fragaria x ananassa Duchesne). Botrytis cinerea Pers.: Fr, was isolated from commercial grape (Vitis vinifera L.) and Fusarium oxysporum Schlechtend: Fr from orchid (Cynoches sp.). Phomopsis viticola (Sacc.) and P. obscurans (Ellis & Everh.) Sutton were from Mike A. Ellis, Ohio State University, Wooster, Ohio. Fungi were grown on potato-dextrose agar (PDA, Difco, Detroit, Mich.) in 9 cm petri dishes and incubated in a growth chamber at 24±2° C. and under cool-white fluorescent lights ([…]·m^−2·sec^−1 light) with 12 hour photoperiod.
(§2) Inoculum preparation. Conidia were harvested from 7-10 day-old cultures by flooding plates with 5 mL of sterile distilled water and dislodging conidia by softly brushing the colonies with an L-shaped glass rod. Conidial suspensions were filtered through sterile miracloth (Calbiochem-Novabiochem Corp., La Jolla, Calif.) to remove mycelia. Conidia concentrations were determined photometrically, from a standard curve based on the percent of transmittance (% T) at 625 nm and suspensions were then adjusted with sterile distilled water to a concentration of 1.0×10^6 conidia/mL.
(§3) Microtiter assay. A standardized 96-well microtiter plate assay developed for discovery of natural product fungicidal agents was used to evaluate naturally occurring antifungal agents from Macaranga monanara. A 96-well microtiter assay was used to determine sensitivity of B. cinerea, C. acutatum, C. fragariae, C. gloeosporioides, F. oxysporum, Phomopsis viticola, and P. obscurans to the various antifungal agents in comparison with known fungicidal standards. Vinclozolin, captan, and thiabendazole, which represent three different modes of action, were used as standards in this experiment. Each fungus was challenged in a dose-response format using test compounds where the final treatment concentrations were 0.3, 3.0 and 30.0 μM. Microtiter plates (Nunc MicroWell, untreated; Roskilde, Denmark) were covered with a plastic lid and incubated in a growth chamber as described previously for fungal growth. Growth was then evaluated by measuring absorbance of each well at 620 nm using a microplate photometer (Packard Spectra Count, Packard Instrument Co., Downers Grove, Ill.). Microtiter plates (Nunc MicroWell, untreated; Roskilde, Denmark) were covered with a plastic lid and incubated in a growth chamber at 24±1° C. and 12 hour photoperiod under 60±5 μmol light. Growth was then evaluated by measuring absorbance of each well at 620 nm using a microplate photometer (Packard Spectra Count, Packard Instrument Co., Downers Grove, Ill.).
(§4) Microbioassy Experimental Design. Chemical sensitivity each of B. cinerea, C. acutatum, C. fragariae, C. gloeosporiodes, F. oxysporum, Phomopsis viticola, and P. obscurans was evaluated using 96-well plate microbioassay format. Each chemical was evaluated in duplicate at each dose (0.3, 3.0 and 30.0 μM). […]

F. oxysporum = assay type: cell-based, Fusarium oxysporum; details: for inhibition at 0.3 µM / inhibition at 3 µM / inhibition at 30 µM: Fusarium oxysporum, read-out: Percent inhibition−Percent Stimulation±SEM; for Percent inhibition−Percent Stimulation±SEM: F. oxysporum
Source text: as §1, §2, §3, §4

C. gloeosporioides = assay type: cell-based, Colletotrichum gloeosporioides; details: for inhibition at 0.3 µM / inhibition at 3 µM / inhibition at 30 µM: Colletotrichum gloeosporioides, read-out: Percent inhibition−Percent Stimulation±SEM; for Percent inhibition−Percent Stimulation±SEM: C. gloeosporioides
Source text: as §1, §2, §3, §4

B. cinerea = assay type: cell-based, Botrytis cinerea; details: for inhibition at 0.3 µM / inhibition at 3 µM / inhibition at 30 µM: Botrytis cinerea, read-out: Percent inhibition−Percent Stimulation±SEM; for Percent inhibition−Percent Stimulation±SEM: B. cinerea
Source text: as §1, §2, §3, §4

C. acutatum = assay type: cell-based, Colletotrichum acutatum; details: for inhibition at 0.3 µM / inhibition at 3 µM / inhibition at 30 µM: Colletotrichum acutatum, read-out: Percent inhibition−Percent Stimulation±SEM; for Percent inhibition−Percent Stimulation±SEM: C. acutatum
Source text: as §1, §2, §3, §4

O=C1C2CC=CCC2C(=O)N1SC(Cl)(Cl)Cl (stereo not drawn) [Captan]
inhibition at 0.3 µM (C. fragariae; 48 h): -20.5 ± 9.5% | inhibition at 3 µM (C. fragariae; 48 h): 98.1 ± 0.6% | inhibition at 30 µM (C. fragariae; 48 h): 98.8 ± 0.8% | inhibition at 0.3 µM (C. fragariae; 72 h): -14.9 ± 2.2% | inhibition at 3 µM (C. fragariae; 72 h): 97.8 ± 1.6% | inhibition at 30 µM (C. fragariae; 72 h): 99.5 ± 0.3% | inhibition at 0.3 µM (F. oxysporum; 48 h): 2.8 ± 4.7% | inhibition at 3 µM (F. oxysporum; 48 h): 77.2 ± 7.2% | inhibition at 30 µM (F. oxysporum; 48 h): 100 ± 0.4% | inhibition at 0.3 µM (F. oxysporum; 72 h): -4.7 ± 2.1% | inhibition at 3 µM (F. oxysporum; 72 h): 24.1 ± 6.5% | inhibition at 30 µM (F. oxysporum; 72 h): 99.8 ± 0.2% | inhibition at 0.3 µM (C. gloeosporioides; 48 h): -4.4 ± 4.4% | inhibition at 3 µM (C. gloeosporioides; 48 h): 96.3 ± 2.1% | inhibition at 30 µM (C. gloeosporioides; 48 h): 99.7 ± 0.6% | inhibition at 0.3 µM (C. gloeosporioides; 72 h): -15.3 ± 2.1% | inhibition at 3 µM (C. gloeosporioides; 72 h): 97.9 ± 0.7% | inhibition at 30 µM (C. gloeosporioides; 72 h): 100 ± 0.3% | inhibition at 0.3 µM (B. cinerea; 48 h): -55.9 ± 24.7% | inhibition at 3 µM (B. cinerea; 48 h): 38.4 ± 23.5% | inhibition at 30 µM (B. cinerea; 48 h): 58 ± 23.2% | inhibition at 0.3 µM (B. cinerea; 72 h): 40.7 ± 16.3% | inhibition at 3 µM (B. cinerea; 72 h): 54.6 ± 22.9% | inhibition at 30 µM (B. cinerea; 72 h): 54 ± 17.9% | inhibition at 0.3 µM (C. acutatum; 48 h): -2.7 ± 2.4% | inhibition at 3 µM (C. acutatum; 48 h): 98.8 ± 0.4% | inhibition at 30 µM (C. acutatum; 48 h): 99.5 ± 0.3% | inhibition at 0.3 µM (C. acutatum; 72 h): -9.5 ± 1.5% | inhibition at 3 µM (C. acutatum; 72 h): 94.8 ± 0.2% | inhibition at 30 µM (C. acutatum; 72 h): 99.6 ± 0.2%

CO/N=C(/C(=O)OC)c1ccccc1COc1ccccc1C [BAS 490]
Percent inhibition−Percent Stimulation±SEM (C. fragariae; 0.3 μM, 48 hrs): −68.8 ± 7.1% | Percent inhibition−Percent Stimulation±SEM (C. fragariae; 0.3 μM, 72 hrs): −35.6 ± 5.6% | Percent inhibition−Percent Stimulation±SEM (C. fragariae; 3.0 μM, 48 hrs): −86.4 ± 3.5% | Percent inhibition−Percent Stimulation±SEM (C. fragariae; 3.0 μM, 72 hrs): −71.9 ± 3.5% | Percent inhibition−Percent Stimulation±SEM (C. fragariae; 30 μM, 48 hrs): −91.5 ± 1.7% | Percent inhibition−Percent Stimulation±SEM (C. fragariae; 30 μM, 72 hrs): −80.4 ± 1.4% | Percent inhibition−Percent Stimulation±SEM (F. oxysporum; 0.3 μM, 48 hrs): −82.3 ± 3.0% | Percent inhibition−Percent Stimulation±SEM (F. oxysporum; 0.3 μM, 72 hrs): −30.3 ± 6.9% | Percent inhibition−Percent Stimulation±SEM (F. oxysporum; 3.0 μM, 48 hrs): −92.7 ± 0.6% | Percent inhibition−Percent Stimulation±SEM (F. oxysporum; 3.0 μM, 72 hrs): −65.5 ± 1.6% | Percent inhibition−Percent Stimulation±SEM (F. oxysporum; 30 μM, 48 hrs): −94.7 ± 0.5% | Percent inhibition−Percent Stimulation±SEM (F. oxysporum; 30 μM, 72 hrs): −69.5 ± 2.0% | Percent inhibition−Percent Stimulation±SEM (C. gloeosporioides; 0.3 μM, 48 hrs): −83.3 ± 3.2% | Percent inhibition−Percent Stimulation±SEM (C. gloeosporioides; 0.3 μM, 72 hrs): −58.7 ± 5.0% | Percent inhibition−Percent Stimulation±SEM (C. gloeosporioides; 3.0 μM, 48 hrs): −92.4 ± 1.5% | Percent inhibition−Percent Stimulation±SEM (C. gloeosporioides; 3.0 μM, 72 hrs): −82.6 ± 3.4% | Percent inhibition−Percent Stimulation±SEM (C. gloeosporioides; 30 μM, 48 hrs): −97.5 ± 1.0% | Percent inhibition−Percent Stimulation±SEM (C. gloeosporioides; 30 μM, 72 hrs): −89.7 ± 1.9% | Percent inhibition−Percent Stimulation±SEM (B. cinerea; 0.3 μM, 48 hrs): −71.3 ± 28.0% | Percent inhibition−Percent Stimulation±SEM (B. cinerea; 0.3 μM, 72 hrs): −66.6 ± 21.5% | Percent inhibition−Percent Stimulation±SEM (B. cinerea; 3.0 μM, 48 hrs): −24.0 ± 32.0% | Percent inhibition−Percent Stimulation±SEM (B. cinerea; 3.0 μM, 72 hrs): −37.2 ± 20.2% | Percent inhibition−Percent Stimulation±SEM (B. cinerea; 30 μM, 48 hrs): −60.1 ± 32.9% | Percent inhibition−Percent Stimulation±SEM (B. cinerea; 30 μM, 72 hrs): −40.9 ± 17.6% | Percent inhibition−Percent Stimulation±SEM (C. acutatum; 0.3 μM, 48 hrs): −63.9 ± 3.8% | Percent inhibition−Percent Stimulation±SEM (C. acutatum; 0.3 μM, 72 hrs): −17.8 ± 3.5% | Percent inhibition−Percent Stimulation±SEM (C. acutatum; 3.0 μM, 48 hrs): −93.1 ± 0.6% | Percent inhibition−Percent Stimulation±SEM (C. acutatum; 3.0 μM, 72 hrs): 14.7 ± 2.5% | Percent inhibition−Percent Stimulation±SEM (C. acutatum; 30 μM, 48 hrs): −95.1 ± 0.7% | Percent inhibition−Percent Stimulation±SEM (C. acutatum; 30 μM, 72 hrs): −69.9 ± 2.6%

N#CC(CCc1ccc(Cl)cc1)(Cn1cncn1)c1ccccc1 (stereo not drawn) [Fenbucanazole]
Percent inhibition−Percent Stimulation±SEM (C. fragariae; 0.3 μM, 48 hrs): −26.8 ± 14.1% | Percent inhibition−Percent Stimulation±SEM (C. fragariae; 0.3 μM, 72 hrs): 19.0 ± 7.7% | Percent inhibition−Percent Stimulation±SEM (C. fragariae; 3.0 μM, 48 hrs): −37.0 ± 15.3% | Percent inhibition−Percent Stimulation±SEM (C. fragariae; 3.0 μM, 72 hrs): 4.7 ± 4.2% | Percent inhibition−Percent Stimulation±SEM (C. fragariae; 30 μM, 48 hrs): −99.3 ± 1.1% | Percent inhibition−Percent Stimulation±SEM (C. fragariae; 30 μM, 72 hrs): −97.7 ± 0.6% | Percent inhibition−Percent Stimulation±SEM (F. oxysporum; 0.3 μM, 48 hrs): −15.3 ± 2.6% | Percent inhibition−Percent Stimulation±SEM (F. oxysporum; 0.3 μM, 72 hrs): −10.4 ± 2.7% | Percent inhibition−Percent Stimulation±SEM (F. oxysporum; 3.0 μM, 48 hrs): −33.1 ± 4.2% | Percent inhibition−Percent Stimulation±SEM (F. oxysporum; 3.0 μM, 72 hrs): −29.3 ± 2.6% | Percent inhibition−Percent Stimulation±SEM (F. oxysporum; 30 μM, 48 hrs): −45.5 ± 3.4% | Percent inhibition−Percent Stimulation±SEM (F. oxysporum; 30 μM, 72 hrs): −44.5 ± 2.5% | Percent inhibition−Percent Stimulation±SEM (C. gloeosporioides; 0.3 μM, 48 hrs): −86.1 ± 1.4% | Percent inhibition−Percent Stimulation±SEM (C. gloeosporioides; 0.3 μM, 72 hrs): −59.1 ± 3.6% | Percent inhibition−Percent Stimulation±SEM (C. gloeosporioides; 3.0 μM, 48 hrs): −95.0 ± 1.1% | Percent inhibition−Percent Stimulation±SEM (C. gloeosporioides; 3.0 μM, 72 hrs): −98.1 ± 0.4% | Percent inhibition−Percent Stimulation±SEM (C. gloeosporioides; 30 μM, 48 hrs): −99.0 ± 0.7% | Percent inhibition−Percent Stimulation±SEM (C. gloeosporioides; 30 μM, 72 hrs): −99.6 ± 0.2% | Percent inhibition−Percent Stimulation±SEM (B. cinerea; 0.3 μM, 48 hrs): −46.0 ± 34.2% | Percent inhibition−Percent Stimulation±SEM (B. cinerea; 0.3 μM, 72 hrs): −49.6 ± 24.7% | Percent inhibition−Percent Stimulation±SEM (B. cinerea; 3.0 μM, 48 hrs): −35.9 ± 28.3% | Percent inhibition−Percent Stimulation±SEM (B. cinerea; 3.0 μM, 72 hrs): −47.0 ± 23.0% | Percent inhibition−Percent Stimulation±SEM (B. cinerea; 30 μM, 48 hrs): 17.6 ± 52.2% | Percent inhibition−Percent Stimulation±SEM (B. cinerea; 30 μM, 72 hrs): −29.9 ± 24.2% | Percent inhibition−Percent Stimulation±SEM (C. acutatum; 0.3 μM, 48 hrs): 13.0 ± 5.8% | Percent inhibition−Percent Stimulation±SEM (C. acutatum; 0.3 μM, 72 hrs): 16.3 ± 5.4% | Percent inhibition−Percent Stimulation±SEM (C. acutatum; 3.0 μM, 48 hrs): −3.8 ± 4.8% | Percent inhibition−Percent Stimulation±SEM (C. acutatum; 3.0 μM, 72 hrs): −89.9 ± 6.8% | Percent inhibition−Percent Stimulation±SEM (C. acutatum; 30 μM, 48 hrs): −39.2 ± 3.3% | Percent inhibition−Percent Stimulation±SEM (C. acutatum; 30 μM, 72 hrs): −21.7 ± 5.8%
